PMC8617031, “Development of a BCL-xL and BCL-2 dual degrader with improved anti-leukemic activity,” (Nature Communications, 2021)
Several values for one entry are separate records, joined by “and”; a condition that tells them apart may be missing. Equal entries are not always repeated.

Columns and labels:
[1] = system: BCL-xL/PROTAC/VCB ternary complex (HiBit-BCL-xL, HaloTag-VHL); test: NanoBRET intracellular ternary complex formation in 293T cells, BCL-xL; assay type: cell-based, human; settings: for nanoBRET ratio (610/450, background-subtracted), Ave, Bcl-xl: Ave of Read2 and Read3; for nanoBRET ratio (610/450, background-subtracted), Ave, Bcl-xl / nanoBRET ratio (610/450, background-subtracted), Read2, Bcl-xl / nanoBRET ratio (610/450, background-subtracted), Read3, Bcl-xl: triplicate wells; for intracellular ternary complex formation with BCL-xL (in words): NanoBRET, 293T cells, 6 h
Method in brief: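 293T cells were transfected with HiBit-BCL-xL or HiBit-BCL-2 plus HaloTag-VHL and incubated overnight with or without HaloTag NanoBRET 618 ligand in 4% FBS Opti-MEM. Serially diluted compounds were applied for 6 h at 37 °C. mBRET ratio from donor emission (450/50 nm) and acceptor emission (610 nm longpass) after Nano-Glo substrate.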

[2] = target: T1, BCL-2/PROTAC/VCB ternary complex (Homo sapiens, UniProt P10415+P40337); test: AlphaLISA ternary complex formation, cell-free, BCL-2; assay type: binding; settings: for in vitro ternary complex formation with BCL-2 (in words): AlphaLISA, cell-free, Fig. 2d, 3f; for Alpha (Alpha Endpoint read, Bcl-2 ternary complex formation): raw plate signal, duplicate wells; for AlphaLISA signal, BCL-2/PROTAC/VCB: Fig. 2d raw Alpha reads
T1 construct: pGEX-6P-1-VHL(54-213) (pDL2200) was constructed through Gibson assembly method; made in house; host or cells: bacterial culture (LB broth, IPTG induction)
T1 sequence (P10415 1-211 limits assumed): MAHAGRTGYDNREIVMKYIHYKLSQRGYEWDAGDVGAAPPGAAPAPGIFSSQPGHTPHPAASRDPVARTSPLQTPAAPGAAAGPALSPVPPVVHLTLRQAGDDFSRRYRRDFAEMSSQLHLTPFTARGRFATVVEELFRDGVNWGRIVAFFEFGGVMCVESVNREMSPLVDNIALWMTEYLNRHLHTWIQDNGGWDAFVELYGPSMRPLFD
T1 sequence (P40337 54-213 limits assumed): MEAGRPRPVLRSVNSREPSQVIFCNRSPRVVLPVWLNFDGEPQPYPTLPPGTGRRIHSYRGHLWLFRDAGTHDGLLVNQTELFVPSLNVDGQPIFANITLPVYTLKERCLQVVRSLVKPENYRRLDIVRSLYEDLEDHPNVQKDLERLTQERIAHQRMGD
T1 sequence (Q15369 17-112 partner limits assumed): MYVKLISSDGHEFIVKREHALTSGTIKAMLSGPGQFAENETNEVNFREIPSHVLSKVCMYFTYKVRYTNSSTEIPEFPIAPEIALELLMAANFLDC
T1 sequence (Q15370 whole entry partner): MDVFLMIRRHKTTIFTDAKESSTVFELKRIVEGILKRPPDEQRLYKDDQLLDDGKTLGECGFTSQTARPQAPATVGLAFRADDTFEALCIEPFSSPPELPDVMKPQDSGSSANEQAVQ
Method in brief: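 Cell-free AlphaLISA: 5 nM His-tagged BCL-xL or BCL-2 plus 5 nM GST-VCB incubated with fourfold serially diluted compound 30 min at room temperature. Glutathione donor and His acceptor beads (20 µg/ml each) then added for 15 and 45 min; AlphaLISA signal plotted against compound concentration.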

Structure (SMILES): Cc1ncsc1-c1ccc([C@H](C)NC(=O)[C@@H]2C[C@@H](O)CN2C(=O)[C@@H](NC(=O)CCCCCCC(=O)N2CCN(C[C@]3(C)CCC(c4ccc(Cl)cc4)=C(CN4CCN(c5ccc(C(=O)NS(=O)(=O)c6ccc(N[C@H](CCN7CCOCC7)CSc7ccccc7)c(S(=O)(=O)C(F)(F)F)c6)cc5)CC4)C3)CC2)C(C)(C)C)cc1 [753b]
- nanoBRET ratio (610/450, background-subtracted), Ave, Bcl-xl ([1]; 0.004 uM): 6.669 and 7.034 and 7.222
- nanoBRET ratio (610/450, background-subtracted), Read2, Bcl-xl ([1]; 0.004 uM): 6.7548 and 7.529 and 7.533
- nanoBRET ratio (610/450, background-subtracted), Read3, Bcl-xl ([1]; 0.004 uM): 6.584 and 6.539 and 6.911
- nanoBRET ratio (610/450, background-subtracted), Ave, Bcl-xl ([1]; 0.012 uM): 7.369 and 7.678 and 8.359
- nanoBRET ratio (610/450, background-subtracted), Read2, Bcl-xl ([1]; 0.012 uM): 7.541 and 7.384 and 8.298
- nanoBRET ratio (610/450, background-subtracted), Read3, Bcl-xl ([1]; 0.012 uM): 7.198 and 7.973 and 8.421
- nanoBRET ratio (610/450, background-subtracted), Ave, Bcl-xl ([1]; 0.111 uM): 9.509 and 8.705 and 10.1696
- nanoBRET ratio (610/450, background-subtracted), Read2, Bcl-xl ([1]; 0.111 uM): 10.2238 and 9.035 and 9.873
- nanoBRET ratio (610/450, background-subtracted), Read3, Bcl-xl ([1]; 0.111 uM): 8.794 and 8.375 and 10.4663
- nanoBRET ratio (610/450, background-subtracted), Ave, Bcl-xl ([1]; 0.333 uM): 10.2723 and 9.168 and 8.741
- nanoBRET ratio (610/450, background-subtracted), Read2, Bcl-xl ([1]; 0.333 uM): 10.5785 and 8.953 and 8.643
- nanoBRET ratio (610/450, background-subtracted), Read3, Bcl-xl ([1]; 0.333 uM): 9.9661 and 9.383 and 8.84
- nanoBRET ratio (610/450, background-subtracted), Ave, Bcl-xl ([1]; 1 uM): 8.944 and 10.7233 and 9.842
- nanoBRET ratio (610/450, background-subtracted), Read2, Bcl-xl ([1]; 1 uM): 9.3741 and 12.2305 and 10.3071
- nanoBRET ratio (610/450, background-subtracted), Read3, Bcl-xl ([1]; 1 uM): 8.514 and 9.216 and 9.3776
- nanoBRET ratio (610/450, background-subtracted), Ave, Bcl-xl ([1]; 3 uM): 8.924 and 8.687 and 9.846
- nanoBRET ratio (610/450, background-subtracted), Read2, Bcl-xl ([1]; 3 uM): 9.65 and 9.358 and 10.5304
- nanoBRET ratio (610/450, background-subtracted), Read3, Bcl-xl ([1]; 3 uM): 8.197 and 8.015 and 9.162
- intracellular ternary complex formation with BCL-xL (in words) [1]: much higher activity to induce the ternary complex formation with both BCL-xL and BCL-2 relative to 753a
- in vitro ternary complex formation with BCL-2 (in words) [2]: stronger ternary complexes with BCL-xL/2 than those by 753a and DT2216
- Alpha (Alpha Endpoint read, Bcl-2 ternary complex formation) ([2]; Conc. 0.0762939 nM): 175483 and 157446
- Alpha (Alpha Endpoint read, Bcl-2 ternary complex formation) ([2]; Conc. 0.305176 nM): 174555 and 132830
- Alpha (Alpha Endpoint read, Bcl-2 ternary complex formation) ([2]; Conc. 1.2207 nM): 345223 and 378556
- Alpha (Alpha Endpoint read, Bcl-2 ternary complex formation) ([2]; Conc. 4.88281 nM): 1458903 and 1528033
- Alpha (Alpha Endpoint read, Bcl-2 ternary complex formation) ([2]; Conc. 19.5312 nM): 3478424 and 3254843
- Alpha (Alpha Endpoint read, Bcl-2 ternary complex formation) ([2]; Conc. 78.125 nM): 2950431 and 3084677
- Alpha (Alpha Endpoint read, Bcl-2 ternary complex formation) ([2]; Conc. 312.5 nM): 1886162 and 2006989
- Alpha (Alpha Endpoint read, Bcl-2 ternary complex formation) ([2]; Conc. 1250 nM): 474662 and 509499
- Alpha (Alpha Endpoint read, Bcl-2 ternary complex formation) ([2]; Conc. 5000 nM): 83238 and 74082
- Alpha (Alpha Endpoint read, Bcl-2 ternary complex formation) ([2]; Conc. 20000 nM): 44557 and 25949

Structure (SMILES): Cc1ncsc1-c1ccc([C@H](C)NC(=O)[C@@H]2C[C@@H](O)CN2C(=O)[C@@H](NC(=O)CCCCC(=O)N2CCN(CC3(C)CCC(c4ccc(Cl)cc4)=C(CN4CCN(c5ccc(C(=O)NS(=O)(=O)c6ccc(N[C@H](CCN7CCOCC7)CSc7ccccc7)c(S(=O)(=O)C(F)(F)F)c6)cc5)CC4)C3)CC2)C(C)(C)C)cc1 (stereo partly shown) [PPC6]
- intracellular ternary complex formation with BCL-xL (in words) [1]: stronger BCL-xL/PROTAC/VHL-EloC-EloB (VCB) ternary complexes
- in vitro ternary complex formation with BCL-2 (in words) [2]: stronger ternary complexes
- AlphaLISA signal, BCL-2/PROTAC/VCB ([2]; compound 0.191 nM): 16425 and 15906
- AlphaLISA signal, BCL-2/PROTAC/VCB ([2]; compound 0.763 nM): 18031 and 17435
- AlphaLISA signal, BCL-2/PROTAC/VCB ([2]; compound 3.052 nM): 30431 and 31755
- AlphaLISA signal, BCL-2/PROTAC/VCB ([2]; compound 12.207 nM): 272991 and 264284
- AlphaLISA signal, BCL-2/PROTAC/VCB ([2]; compound 48.828 nM): 1222232 and 1254048
- AlphaLISA signal, BCL-2/PROTAC/VCB ([2]; compound 195.31 nM): 1139558 and 1151559
- AlphaLISA signal, BCL-2/PROTAC/VCB ([2]; compound 781.25 nM): 1076543 and 1153682
- AlphaLISA signal, BCL-2/PROTAC/VCB ([2]; compound 3125 nM): 286448 and 313784
- AlphaLISA signal, BCL-2/PROTAC/VCB ([2]; compound 12500 nM): 33420 and 31990
- AlphaLISA signal, BCL-2/PROTAC/VCB ([2]; compound 50000 nM): 13658 and 13269
- AlphaLISA signal, BCL-2/PROTAC/VCB ([2]; compound 200000 nM, 2 technical replicates): 8289 and 7903
